Molecules are shown by their SMILES.

1 molecule from patent publication US7335679B2 (Arizona Board of Regents on behalf of the University of …, priority 2001, dated 2008) can be followed below.

The test system of this data set is C57BL6 mice. As to the kind of experiment: in vivo toxicity in mice, ip daily for 4 days. The settings on record: ip daily × 4, MTD = >10% body weight loss. From the text:
Highlighted are the compounds being made for antitumor testing.

For `COC[C@H]1OC(=O)c2coc3c2[C@@]1(C)C1=C(C3=O)[C@@H]2CCC(=O)[C@@]2(C)C[C@H]1OC(C)=O` [wortmannin, reference compound], the “Maximum tolerated dose mg/kg ip qD × 4” value amounted to 2.5 mg/kg.
